Experimental data reported in patent US12403141B2, “Deuterated MK2 pathway inhibitors and methods of using the same” (ACLARIS THERAPEUTICS, INC., priority 2019, dated 2025).
Where two headings read alike, the source gives them in different places.

Test: IV pharmacokinetics in male SD rats
Type: in vivo, rat
Settings: for clearance: male, Sprague-Dawley, rat, plasma, iv
Method: Pharmacokinetic parameters of some examples were evaluated in male Sprague Dawley (SD) rats after intravenous (IV) and oral (PO) dosing. Male SD rats (5-6 weeks of age) were fasted for 12 hours before administration of the compound of interest. Animals were allowed access to food 2 h after dosing and water was given ad libitum. Except for the compound of Example 13, pharmacokinetic experiments comparing deuterium containing and non-deuterium containing compounds were performed at the same time using the same cohort of animals. The pharmacokinetic properties of the compound of Example 13 were evaluated separately and compared to previously generated data.
For IV dosing, a 0.5 mg/mL solution of the test compound was prepared in a vehicle consisting of 5% DMSO, 5% Cremophore, 90% normal saline. For a 1 mpk dose, 2 mL/kg of this dosing vehicle was administered to each rat by bolus injection into the tail vein. For lower doses, the dosing solution was diluted with the appropriate amount of vehicle. Example 3 was evaluated at 3 mpk by preparing a 1.5 mg/mL solution in the same vehicle and dosing 2 mL/kg. Blood samples from each animal was collected in di-sodium EDTA coated containers at 0.12, 0.25, 0.5, 1.0, 2.0, 4.0, 8.0 and 24.0 hours after dosing. Plasma was separated from the blood samples within 15 minutes following collection and stored at −20±5° C. before analysis.
A standard curve was generated from a stock solution of the test compound with known concentration in methanol. Working solutions having known concentrations ranging from 5-20,000 ng/mL were prepared from the stock solution by dilution with methanol:water (80:20 v/v). 5 uL of the working solutions were added to 45 uL of blank rat plasma to provide standard samples for analysis.
Plasma samples collected from rats after dosing were allowed to reach room temperature. A 50 uL aliquot of each plasma sample and the standard curve plasma samples were treated with 200 uL of acetonitrile containing an internal standard (100 ng/mL; warfarin/diclofenac) and mixed well. The samples were vortexed for 5 minutes followed by centrifugation for 5 minutes at 14000 rpm at 4° C. The supernatant (10 uL) was analyzed by LC-MS/MS (LC: Shimadzu SIL HTc, MS: MDS Sciex API-5500 & 4000 using 75%/25% acetonitrile/0.2% formic acid in Milli-Q water, flow rate: 1.0 mL/min, run time 3 minutes, Atlantis dC18(50×4.6 mm, 3 um; Waters®)) and the concentrations of the test compound in the plasma samples collected from rats at each time point were determined by comparison to the standard curve samples.
Pharmacokinetic parameters were calculated from the plasma concentrations at each time point using Phoenix WinNonlin (Version 7.0) by the non-compartmental analysis (NCA) method. Clearance values are reported as mL/min/kg. AUC values are reported as ng·h/mL.

[1] = 0.1 mg/kg, IV 0.1 mpk, ± one standard deviation, read-out: IV clearance 0.1 mpk
[2] = 1 mg/kg, IV 1 mpk, ± one standard deviation, read-out: IV clearance 1 mpk
[3] = 3 mg/kg, IV 3 mpk, ± one standard deviation, read-out: IV clearance 3 mpk
[4] = IV 0.1 mpk, ± one standard deviation

SMILES | clearance [1] | clearance [2] | further results
COc1cccc(COc2cc(C)n(-c3cc(-c4ccnc(C(C)(C)O)n4)ncc3C)c(=O)c2Cl)c1 [Example 9-H2, 3-chloro-2′-(2-(2-hydroxypropan-2-yl)pyrimidin-4-yl)-4-((3-methoxyphenyl)methoxy)-5′,6-dimethyl-2H-[1,4′-bipyridin]-2-one] | 16 ± 3 mL/min/kg | 12 ± 2 mL/min/kg | 
[2H]C([2H])(Oc1cc(C)n(-c2cc(-c3ccnc(C(C)(C)O)n3)ncc2C)c(=O)c1Cl)c1cccc(OC)c1 (single isomer, unassigned) [Example 9-D2, 3-Chloro-2′-(2-(2-hydroxypropan-2-yl)pyrimidin-4-yl)-4-((3-methoxyphenyl)methoxy-d2)-5′,6-dimethyl-2H-[1,4′-bipyridin]-2-one] | 17 ± 3 mL/min/kg | 18 ± 2 mL/min/kg | 
Cc1cnc(-c2ccnc(C(C)(C)O)n2)cc1-n1c(C)cc(OCc2ccn(C)n2)c(Cl)c1=O [Example 3-H2, 3-chloro-2′-(2-(2-hydroxypropan-2-yl)pyrimidin-4-yl)-5′,6-dimethyl-4-((1-methyl-1H-pyrazol-3-yl)methoxy)-2H-[1,4′-bipyridin]-2-one] | 13 ± 3 mL/min/kg | 9 ± 2 mL/min/kg | clearance [3]: 8 ± 1 mL/min/kg
Cc1cnc(-c2ccnc(C(C)(C)O)n2)cc1-n1c(C)cc(OCc2ccccc2)c(Cl)c1=O [Example 5-H2, 3-chloro-2′-(2-(2-hydroxypropan-2-yl)pyrimidin-4-yl)-5′,6-dimethyl-4-(phenylmethoxy)-2H-[1,4′-bipyridin]-2-one] | 16 ± 2 mL/min/kg | 15 ± 2 mL/min/kg | 
Cc1cnc(-c2ccnc(C(C)(C)O)n2)cc1-n1c(C)cc(OCc2cccc(C(F)(F)F)c2)c(Cl)c1=O [Example 7-H2, 3-chloro-2′-(2-(2-hydroxypropan-2-yl)pyrimidin-4-yl)-5′,6-dimethyl-4-((3-(trifluoromethyl)phenyl)methoxy)-2H-[1,4′-bipyridin]-2-one] | 7 ± 4 mL/min/kg | 3.1 ± 0.3 mL/min/kg | 
[2H]C([2H])(Oc1cc(C)n(-c2cc(-c3ccnc(C(C)(C)O)n3)ncc2C)c(=O)c1Cl)c1cccc(C(F)(F)F)c1 (single isomer, unassigned) [Example 7-D2, 3-Chloro-2′-(2-(2-hydroxypropan-2-yl)pyrimidin-4-yl)-5′,6-dimethyl-4-((3-(trifluoromethyl)phenyl)methoxy-d2)-2H-[1,4′-bipyridin]-2-one] | 4.9 ± 0.5 mL/min/kg | 6 ± 1 mL/min/kg | 
[2H]C([2H])(Oc1cc(C)n(-c2cc(-c3ccnc(C(C)(C)O)n3)ncc2C)c(=O)c1Cl)c1ccccc1 (single isomer, unassigned) [Example 5-D2, 3-Chloro-2′-(2-(2-hydroxypropan-2-yl)pyrimidin-4-yl)-5′,6-dimethyl-4-(phenylmethoxy-d2)-2H-[1,4′-bipyridin]-2-one] | 18 ± 1 mL/min/kg | 13 ± 2 mL/min/kg | 
[2H]C([2H])(Oc1cc(C)n(-c2cc(-c3ccnc(C(C)(C)O)n3)ncc2C)c(=O)c1Cl)c1ccn(C)n1 (single isomer, unassigned) [Example 3-D2, 3-Chloro-2′-(2-(2-hydroxypropan-2-yl)pyrimidin-4-yl)-5′,6-dimethyl-4-((1-methyl-1H-pyrazol-3-yl)methoxy-d2)-2H-[1,4′-bipyridin]-2-one] | 12 ± 3 mL/min/kg | 13 ± 2 mL/min/kg | clearance [3]: 9 ± 1 mL/min/kg
[2H]C([2H])(Oc1cc(C)n(-c2cc(-c3ccnc(C(C)(C)O)n3)ncc2C)c(=O)c1Cl)c1ccc(F)cc1F (single isomer, unassigned) [Example 11-H2, 3-chloro-4-((2,4-difluorophenyl)methoxy-d2)-2′-(2-(2-hydroxypropan-2-yl)pyrimidin-4-yl)-5′,6-dimethyl-2H-[1,4′-bipyridin]-2-one] |  |  | dose dependence of clearance (IV 0.1 and 1 mpk): strong dose dependence; IV clearance 0.1 mpk [4]: 40 ± 4 mL/min/kg; IV clearance 1 mpk (IV 1 mpk, ± one standard deviation): 22 ± 2 mL/min/kg

The next lines start with results.

clearance [1] | clearance [2] | SMILES | further results
 | 25 ± 3 mL/min/kg | [2H]C([2H])(Oc1cc(C)n(-c2cc(-c3ccnc(C(C)(C)O)n3)ncc2C)c(=O)c1Cl)c1ccc(F)cc1F (single isomer, unassigned) [Example 11-D2, 3-Chloro-4-((2,4-difluorophenyl)methoxy-d2)-2′-(2-(2-hydroxypropan-2-yl)pyrimidin-4-yl)-5′,6-dimethyl-2H-[1,4′-bipyridin]-2-one] | IV clearance 0.1 mpk [4]: 16 ± 5, mL/min/kg
 | 25 ± 7 mL/min/kg | [2H]C([2H])([2H])C(O)(c1nccc(-c2cc(-n3c(C)cc(OCc4ncc(F)cc4F)c(Cl)c3=O)c(C)cn2)n1)C([2H])([2H])[2H] (single isomer, unassigned) [Example 13-D6, 3-Chloro-4-((3,5-difluoropyridin-2-yl)methoxy)-2′-(2-(2-hydroxypropan-2-yl-1,1,1,3,3,3-d6)pyrimidin-4-yl)-5′,6-dimethyl-2H-[1,4′-bipyridin]-2-one] | effect of deuterium substitution on clearance (IV, versus non-deuterated comparator Example 1-H2): did not result in a statistically significant reduction in clearance
